Experimental findings from US7781613B2, “Substituted N-aminomethylene sulfonamides, production and use thereof as medicaments” (Sanofi-Aventis, priority 2005, dated 2010) are described below.

Data set [1] deals with T1, hormone-sensitive lipase (HSL) (Rattus norvegicus, UniProt P15304).
T1 construct: Isolated rat fat cells are obtained from epididymal adipose tissue from untreated male rats; from tissue; host or cells: rat (Wistar) epididymal adipose tissue, isolated fat cells
T1 sequence (P15304 1-768 isoform P15304-2): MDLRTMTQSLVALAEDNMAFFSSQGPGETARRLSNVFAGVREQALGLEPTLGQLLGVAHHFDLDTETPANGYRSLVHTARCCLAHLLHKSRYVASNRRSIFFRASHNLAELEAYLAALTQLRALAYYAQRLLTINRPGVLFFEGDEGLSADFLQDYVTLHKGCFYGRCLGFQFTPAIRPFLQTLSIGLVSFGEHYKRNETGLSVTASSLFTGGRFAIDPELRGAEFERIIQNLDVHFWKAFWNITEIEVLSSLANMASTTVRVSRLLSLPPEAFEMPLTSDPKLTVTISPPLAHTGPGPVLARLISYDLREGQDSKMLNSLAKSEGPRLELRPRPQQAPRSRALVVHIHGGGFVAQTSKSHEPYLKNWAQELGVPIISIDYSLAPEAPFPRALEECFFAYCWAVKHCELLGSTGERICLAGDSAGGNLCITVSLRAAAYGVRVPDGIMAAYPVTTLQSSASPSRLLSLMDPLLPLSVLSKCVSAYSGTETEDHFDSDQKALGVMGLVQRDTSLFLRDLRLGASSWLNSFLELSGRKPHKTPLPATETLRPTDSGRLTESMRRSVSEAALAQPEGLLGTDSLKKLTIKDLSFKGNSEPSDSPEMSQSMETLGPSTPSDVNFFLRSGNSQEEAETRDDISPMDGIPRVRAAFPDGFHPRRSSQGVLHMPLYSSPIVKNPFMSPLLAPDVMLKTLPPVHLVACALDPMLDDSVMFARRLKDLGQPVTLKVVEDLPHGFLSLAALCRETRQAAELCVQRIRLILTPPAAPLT
The experiment in a line: HSL enzyme assay (NAG assay) with partially purified HSL. The class given is biochemical. The conditions noted are these: inhibition of HSL enzymatic activity; partially purified HSL from rat fat cells; NAG substrate; 30° C., 60 min. Here is the method:
The effect of the compounds of the invention of the formula I is tested in the following enzyme assay system: […]
Preparation of the Partially Purified HSL:
Isolated rat fat cells are obtained from epididymal adipose tissue from untreated male rats (Wistar, 220-250 g) by collagenase treatment in accordance with published methods (e.g. S, Nilsson et al., Anal. Biochem. 158, 1986, 399-407; G. Fredrikson et al., J. Biol. Chem. 256, 1981, 6311-6320; H. Tornquist et al., J. Biol. Chem. 251, 1976, 813-819). The fat cells from 10 rats are washed three times by flotation with 50 ml of homogenization buffer ([…] Tris/HCl, pH 7.4, 0.25 M sucrose, 1 mM EDTA, 1 mM DTT, 10 μg/ml leupeptin, 10 μg/ml antipain, 20 μg/ml pepstatin) each time and finally taken up in 10 ml of homogenization buffer. The fat cells are homogenized in a Teflon-in-glass homogenizer (Braun-Melsungen) by 10 strokes at 1500 rpm and 15° C. The homogenate is centrifuged (Sorvall SM24 tubes, 5000 rpm, 10 min, 4° C.). The subnatant between the layer of fat at the top and the pellet is removed and the centrifugation is repeated. The subnatant resulting therefrom is centrifuged again (Sorvall SM24 tubes, 20 000 rpm, 45 min, 4° C.). […] After incubation at 4° C. for 60 min (shaking at intervals of 15 min), the mixture is centrifuged (Sorvall SM24 tubes, 3000 rpm, 10 min, 4° C.). The supernatant is adjusted to pH 5.2 by adding glacial acetic acid and is incubated at 4° C. for 30 min. The precipitates are collected by centrifugation (Sorvall SS34, 12 000 rpm, 10 min, 4° C.) and suspended in 2.5 ml of 20 mM Tris/HCl, pH 7.0, 1 mM EDTA, 65 mM NaCl, 13% sucrose, 1 mM DTT, 10 μg/ml leupeptin/pepstatin/antipain. The suspension is dialyzed against 25 mM Tris/HCl, pH 7.4, 50% glycerol, 1 mM DTT, 10 μg/ml leupeptin, pepstatin, antipain at 4° C. overnight and then loaded onto a hydroxiapatite column (0.1 g per 1 ml of suspension, equilibrated with 10 mM potassium phosphate, pH 7.0, 30% glycerol, 1 mM DTT). The column is washed with four volumes of equilibration buffer at a flow rate of 20 to 30 ml/h. The HSL is eluted with one volume of equilibration buffer containing 0.5 M potassium phosphate and then dialyzed (see above) and concentrated 5- to 10-fold by ultrafiltration (Amicon Diaflo PM 10 Filter) at 4° C. The partially purified HSL can be stored at −70° C. for 4 to 6 weeks.
Preparation of NAG (NBD Monoacyl Glyceride) Substrate:
6 mg of phosphatidylcholine and 6 mg of phosphatidylinositol are each dissolved in 1 ml of chloroform. 10 mg of NAG are dissolved in 1 ml of chloroform. Two parts of phosphatidylinositol solution (e.g. 83.5 μl) and one part of phosphatidylcholine solution (e.g. 41.5 μl) and 100 μl of NAG solution are pipetted together into plastic scintillation vessels (final concentration in the assay: 0.0375 mg of phospholipid/ml; 0.05 mg/NAG/ml). The chloroform (225 μl total volume) is completely removed by passing a stream of N2 over it. The dried substrate can be stored at 4° C. for up to 3 days. To prepare the phospholipid vesicles/micelles with intercalated NAG (on the day of the assay), the dried substrate is taken up in 20 ml of assay buffer (25 mM Tris/HCl, pH 7.4; 150 mM NaCl) and two ultrasound treatments carried out with an ultrasonic probe (Branson Sonifier Type II, standard microtip): 1st treatment setting 2, 2×1 min, in between 1 min on ice each time; 2nd treatment setting 4, 2×1 min, in between 1 min on ice each time. During this procedure, the color of the substrate solution changes from yellow (extinction maximum 481 nm) to red (extinction maximum 550 nm) owing to intercalation of NAG between the phospholipid molecules in the vesicles/micelles. Before use as substrate (within the next 2 h), the solution is incubated on ice for 15 min.
The assay is carried out in 1.5 ml Eppendorf vessels or 96-well plates at 30° C. for 60 min. […]

Consider `COc1ccc(S(=O)(=O)N=CN(C)C)cc1CN1CC(C)CC(C)C1` (stereo not shown) [Example 8, N-Dimethylaminomethylene-4-methoxy-3-[(3,5-dimethylpiperidino)methyl]benzenesulfonamide], for which the melting point was determined as 89 °C.

Molecule `CC1CC(NC(=O)c2ccc(Cl)c(S(=O)(=O)N=CN(C)C)c2)CC(C)(C)C1` (stereo not shown) [Example 10, 4-Chloro-3-(dimethylaminomethylenesulfamoyl)-N-(3,3,5-trimethylcyclohexyl)benzamide] registered a melting point of 180 °C.

In turn, `CN(C)C=NS(=O)(=O)c1cc(C(=O)NC2CC(C)(C)NC(C)(C)C2)ccc1Cl` [Example 11, 4-Chloro-3-(dimethylaminomethylenesulfamoyl)-N-(2,2,6,6-tetramethylpiperidin-4-yl)-benzamide] showed a melting point of 192 °C.

In the case of `Cc1cc(C)cc(NC(=O)c2ccc(Cl)c(S(=O)(=O)N=CN(C)C)c2)c1` [Example 12, 4-Chloro-3-(dimethylaminomethylenesulfamoyl)-N-(3,5-dimethylphenyl)benzamide], the melting point was 216 °C.

Molecule `CN(C)C=NS(=O)(=O)c1cc(C(=O)NCc2ccccc2Cl)ccc1Cl` [Example 16, 4-Chloro-3-(dimethylaminomethylenesulfamoyl)-N-(2-chlorophenylmethyl)benzamide] returned a melting point of 167 °C.

For the molecule `Cc1cc(C)cc(OCc2ccc(Cl)c(S(=O)(=O)N=CN(C)C)c2)c1` [Example 19, 6-Chloro-N-dimethylaminomethylene-3-[(3,5-dimethylphenoxy)methyl]benzenesulfonamide], the melting point was 137 °C. The same molecule yielded an IC50 in data set [1] of 400 nM.

The molecule `CC1CC(N(Cc2ccc(Cl)c(S(=O)(=O)N=CN(C)C)c2)S(C)(=O)=O)CC(C)(C)C1` (stereo not shown) [Example 21, 6-Chloro-N-dimethylaminomethylene-3-[(N-(3,3,5-trimethylcyclohexyl)-N-methylsulfonylamino)methyl]benzenesulfonamide] had an IC50 in data set [1] of 500 nM.

For `CC1CC(NS(=O)(=O)c2ccc(Cl)c(S(=O)(=O)N=CN(C)C)c2)CC(C)(C)C1` (stereo not shown) [Example 23, 6-Chloro-N-dimethylaminomethylene-3-(3,3,5-trimethylcyclohexylaminosulfonyl]benzenesulfonamide], the half-maximal inhibitory concentration (IC50) in data set [1] was 150 nM.

For the molecule `CN(C)C=NS(=O)(=O)c1cc(S(=O)(=O)N2CCCC(C)(C)C2)ccc1Cl` [Example 24, 6-Chloro-N-dimethylaminomethylene-3-(3,3-dimethylpiperidinosulfonyl]-benzenesulfonamide], the melting point stood at 123 °C.

Turning to `CC1CC(NS(=O)(=O)c2cc(S(=O)(=O)N=CN(C)C)c(C(F)(F)F)cc2N)CC(C)(C)C1` (stereo not shown) [Example 26, 2-Amino-4-trifluoromethyl-5-dimethylaminomethylenesulfamoyl-N-(3,3,5-trimethyl-cyclohexyl)benzenesulfonamide], the melting point was > 165 °C (dec.).

Regarding `CCCCN(CCCC)S(=O)(=O)c1cc(S(=O)(=O)N=CN(C)C)c(Cl)cc1N` [Example 28, 2-Amino-4-chloro-5-dimethylaminomethylenesulfamoyl-N-dibutylbenzenesulfonamide], the IC50 in data set [1] worked out at 30 nM.

Consider `CC(C)CN(CC(C)C)S(=O)(=O)c1cc(S(=O)(=O)N=CN(C)C)c(Cl)cc1N` [Example 29, 2-Amino-4-chloro-5-dimethylaminomethylenesulfamoyl-N-diisobutylbenzenesulfonamide], for which the melting point was determined as 126 °C. In addition, the IC50 in data set [1] was determined as 700 nM.

On to `CC1CC(NS(=O)(=O)c2cc(S(=O)(=O)N=CN(C)C)c(Cl)cc2N)CC(C)(C)C1` (stereo not shown) [Example 32], for which the melting point was found to be 100 °C. This molecule also came in with a 50% inhibitory concentration (IC50) in data set [1] of 1 nM.

`C=CCN(C1CCCCC1)S(=O)(=O)c1cc(S(=O)(=O)N=CN(C)C)c(Cl)cc1N` [Example 33, 2-Amino-4-chloro-5-dimethylaminomethylenesulfamoyl-N-cyclohexyl-N-allyl-benzenesulfonamide]: the melting point stood at 90 °C. This molecule also came in with an IC50 in data set [1] of 200 nM.

On to `CC(C)N(C1CCCCC1)S(=O)(=O)c1cc(S(=O)(=O)N=CN(C)C)c(Cl)cc1N` [Example 34, 2-Amino-4-chloro-5-dimethylaminomethylenesulfamoyl-N-cyclohexyl-N-isopropyl-benzenesulfonamide], for which the melting point is 122 °C (dec.).

For the molecule `CCCCCCCCNS(=O)(=O)c1cc(S(=O)(=O)N=CN(C)C)c(Cl)cc1N` [Example 38, 2-Amino-4-chloro-5-dimethylaminomethylenesulfamoyl-N-octylbenzenesulfonamide], the melting point was 110 °C.

On to `CN(C)C=NS(=O)(=O)c1cc(S(=O)(=O)NC2CCCCC2)c(N)cc1C(F)(F)F` [Example 48, 2-Amino-4-trifluoromethyl-5-dimethylaminomethylenesulfamoyl-N-cyclohexyl-benzenesulfonamide], for which the melting point is > 185 °C (dec.). Further, the half-maximal inhibitory concentration (IC50) in data set [1] was 700 nM.
